Assay results: patent publication US8030498B2, “Benzoylpyrazole compounds and herbicides containing them” (Ishihara Sangyo Kaisha, Ltd., priority 2005, dated 2011)

Tests used:
redroot pigweed = assay: Test Example 2: soil application on the day after sowing, growth inhibition rate, redroot pigweed; format: in vivo, Amaranthus retroflexus L.; settings: 250 g/ha active ingredient, observed on 19th to 24th day; for inhibition at 250 g/ha: Amaranthus retroflexus
Summary of the method: (§1)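 Upland soil pots sown with crop and weed seeds; next day wettable powder or emulsifiable concentrate at prescribed active-ingredient amounts, diluted to 500 L/ha water, sprayed onto soil. Growth inhibition scored visually 19–24 days later, 0 (as untreated) to 100% (complete kill).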

[1] = test system: soybean (Glycine max Merr.); assay: Test Example 1: foliar treatment, growth inhibition rate, soybean; format: in vivo; settings: 31 g/ha active ingredient, visually observed 17th to 23rd day after application
Summary of the method: (§2)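 Visual scoring of growth inhibition, 0% (untreated) to 100% (complete kill), on days 17–23 following post-emergence spray of formulated compound in water (500 L/ha, 0.1 vol % spreader); plants treated at set leaf stages, e.g. corn 2.0–3.5, wheat 1.7–3.4.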

wheat = assay: Test Example 2: soil application on the day after sowing, growth inhibition rate, wheat; format: in vivo, Triticum spp.; settings: 250 g/ha active ingredient, observed on 19th to 24th day; for inhibition at 250 g/ha: Triticum aestivum
Excerpt: Upland field soil was put into a 1/170,000 hectare pot, and seeds of various plants (barnyardgrass, crabgrass, greenfoxtail, redroot pigweed, prickly sida, velvetleaf, rice, wheat, corn and soybean) were sown. On the day after sowing, wettable powders or emulsifiable concentrates of the compounds of the present invention prepared in accordance with a conventional preparation method, were weighed so that the active ingredients became the prescribed amounts, and diluted with water in an amount corresponding to 500 liter per 1 hectare, followed by soil application with a small sprayer. On the 19th to 24th day after the application, the state of growth of the respective plants was visually observed, and the herbicidal effect was evaluated in accordance with a growth inhibition rate (%) of from 0 (equivalent to the non-treated area) to 100% (complete kill).

[2] = test system: greenfoxtail (Setaria viridis L.); assay: Test Example 1: foliar treatment, growth inhibition rate, greenfoxtail; format: in vivo; settings: 31 g/ha active ingredient, visually observed 17th to 23rd day after application; for pest or weed control at 31 g/ha: Setaria viridis
Summary of the method: (§3)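 Potted upland soil; compounds as wettable powders or emulsifiable concentrates diluted in water at 500 L/ha plus 0.1 vol % spreader, foliar-sprayed at defined leaf stages (rice 1.0–2.5, wheat 1.7–3.4, corn 2.0–3.5, greenfoxtail 1.0–3.0). Growth inhibition (0–100%) scored visually 17–23 days after application.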

[3] = test system: redroot pigweed (Amaranthus retroflexus L.); assay: Test Example 1: foliar treatment, growth inhibition rate, redroot pigweed; format: in vivo; settings: 31 g/ha active ingredient, visually observed 17th to 23rd day after application
Summary of the method: as §2

[4] = test system: velvetleaf (Abutilon theophrasti MEDIC.); assay: Test Example 1: foliar treatment, growth inhibition rate, velvetleaf; format: in vivo; settings: 31 g/ha active ingredient, visually observed 17th to 23rd day after application; for pest or weed control at 31 g/ha: Abutilon theophrasti
Summary of the method: (§4)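 Plants grown in upland soil in pots were sprayed on the foliage at set leaf stages (corn 2.0–3.5, greenfoxtail 1.0–3.0, rice 1.0–2.5, wheat 1.7–3.4 leaves) with wettable powder or emulsifiable concentrate formulations diluted in water at 500 L/ha plus 0.1 vol % spreader. Growth inhibition was scored visually 17–23 days later.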

rice (Oryza sativa L.) = assay: Test Example 1: foliar treatment, growth inhibition rate, rice; format: in vivo; settings: 31 g/ha active ingredient, visually observed 17th to 23rd day after application; for pest or weed control at 31 g/ha: Oryza sativa
Summary of the method: as §3

[5] = test system: barnyardgrass (Echinochloa crus-galli L.); assay: Test Example 1: foliar treatment, growth inhibition rate, barnyardgrass; format: in vivo; settings: 31 g/ha active ingredient, visually observed 17th to 23rd day after application; for pest or weed control at 31 g/ha: Echinochloa crus-galli
Summary of the method: as §4

corn = assay: Test Example 2: soil application on the day after sowing, growth inhibition rate, corn; format: in vivo, Zea mays L.; settings: 250 g/ha active ingredient, observed on 19th to 24th day; for inhibition at 250 g/ha: Zea mays
Summary of the method: as §1

greenfoxtail = assay: Test Example 2: soil application on the day after sowing, growth inhibition rate, greenfoxtail; format: in vivo, Setaria viridis L.; settings: 250 g/ha active ingredient, observed on 19th to 24th day; for inhibition at 250 g/ha: Setaria viridis
Summary of the method: as §1

rice = assay: Test Example 2: soil application on the day after sowing, growth inhibition rate, rice; format: in vivo, Oryza sativa L.; settings: 250 g/ha active ingredient, observed on 19th to 24th day; for inhibition at 250 g/ha: Oryza sativa
Summary of the method: as §1

corn (Zea mays L.) = assay: Test Example 1: foliar treatment, growth inhibition rate, corn; format: in vivo; settings: 31 g/ha active ingredient, visually observed 17th to 23rd day after application; for pest or weed control at 31 g/ha: Zea mays
Summary of the method: as §3

crabgrass = assay: Test Example 2: soil application on the day after sowing, growth inhibition rate, crabgrass; format: in vivo, Digitaria sanguinalis L.; settings: 250 g/ha active ingredient, observed on 19th to 24th day; for inhibition at 250 g/ha: Digitaria sanguinalis
Summary of the method: as §1

prickly sida = assay: Test Example 2: soil application on the day after sowing, growth inhibition rate, prickly sida; format: in vivo, Sida spinosa L.; settings: 250 g/ha active ingredient, observed on 19th to 24th day; for inhibition at 250 g/ha: Sida spinosa
Summary of the method: as §1

[6] = test system: crabgrass (Digitaria sanguinalis L.); assay: Test Example 1: foliar treatment, growth inhibition rate, crabgrass; format: in vivo; settings: 31 g/ha active ingredient, visually observed 17th to 23rd day after application; for pest or weed control at 31 g/ha: Digitaria sanguinalis
Summary of the method: as §2

soybean = assay: Test Example 2: soil application on the day after sowing, growth inhibition rate, soybean; format: in vivo, Glycine max Merr.; settings: 250 g/ha active ingredient, observed on 19th to 24th day; for inhibition at 250 g/ha: Glycine max
Summary of the method: as §1

velvetleaf = assay: Test Example 2: soil application on the day after sowing, growth inhibition rate, velvetleaf; format: in vivo, Abutilon theophrasti MEDIC.; settings: 250 g/ha active ingredient, observed on 19th to 24th day; for inhibition at 250 g/ha: Abutilon theophrasti
Summary of the method: as §1

wheat (Triticum spp.) = assay: Test Example 1: foliar treatment, growth inhibition rate, wheat; format: in vivo; settings: 31 g/ha active ingredient, visually observed 17th to 23rd day after application; for pest or weed control at 31 g/ha: Triticum
Summary of the method: as §3

barnyardgrass = assay: Test Example 2: soil application on the day after sowing, growth inhibition rate, barnyardgrass; format: in vivo, Echinochloa crus-galli L.; settings: 250 g/ha active ingredient, observed on 19th to 24th day; for inhibition at 250 g/ha: Echinochloa crus-galli
Summary of the method: as §1

Row | SMILES | Growth inhibition rate (%) redroot pigweed (redroot pigweed) [%] | Growth inhibition rate (%) Soybean [1] [%] | Growth inhibition rate (%) Wheat (wheat) [%] | Growth inhibition rate (%) Greenfoxtail [2] [%] | Growth inhibition rate (%) redroot pigweed [3] [%] | Growth inhibition rate (%) Velvetleaf [4] [%] | Growth inhibition rate (%) Rice (rice (Oryza sativa L.)) [%] | Growth inhibition rate (%) Barnyardgrass [5] [%] | Growth inhibition rate (%) Corn (corn) [%] | Growth inhibition rate (%) Greenfoxtail (greenfoxtail) [%] | Growth inhibition rate (%) Rice (rice) [%] | Growth inhibition rate (%) Corn (corn (Zea mays L.)) [%] | Growth inhibition rate (%) Crabgrass (crabgrass) [%] | Growth inhibition rate (%) Prickly sida (prickly sida) [%] | Growth inhibition rate (%) Crabgrass [6] [%] | Growth inhibition rate (%) Soybean (soybean) [%] | Growth inhibition rate (%) Velvetleaf (velvetleaf) [%] | Growth inhibition rate (%) Wheat (wheat (Triticum spp.)) [%] | Growth inhibition rate (%) Barnyardgrass (barnyardgrass) [%] | inhibition at 250 g/ha (redroot pigweed) [%] | also measured
1 | CCOC(=O)c1c(S(C)(=O)=O)ccc(C(=O)c2cnn(CC)c2OC(=O)SC)c1C [compound 62] | 100 | 90 | 30 | 100 | 100 | 95 | 80 | 100 | 0 | 95 | 70 | 10 | 95 | 90 | 100 | 0 | 90 | 50 | 80 |  | 
2 | CCSC(=O)Oc1c(C(=O)c2ccc(S(C)(=O)=O)c(OCCOC)c2C)cnn1C [Compound No. 55, 5-(ethylthio)carbonyloxy-1-methylpyrazol-4-yl 3-(2-methoxyethoxy)-2-methyl-4-(methylsulfonyl)phenyl ketone] |  | 95 |  |  | 95 |  |  |  |  |  |  |  |  |  |  |  |  |  |  | 100 | inhibition at 250 g/ha (wheat): 0%; pest or weed control at 31 g/ha [2]: 100%; pest or weed control at 31 g/ha [4]: 100%; pest or weed control at 31 g/ha (rice (Oryza sativa L.)): 60%; pest or weed control at 31 g/ha [5]: 100%; inhibition at 250 g/ha (corn): 0%; inhibition at 250 g/ha (greenfoxtail): 100%; inhibition at 250 g/ha (rice): 70%; pest or weed control at 31 g/ha (corn (Zea mays L.)): 40%; inhibition at 250 g/ha (crabgrass): 100%; inhibition at 250 g/ha (prickly sida): 70%; pest or weed control at 31 g/ha [6]: 100%; inhibition at 250 g/ha (soybean): 0%; inhibition at 250 g/ha (velvetleaf): 95%; pest or weed control at 31 g/ha (wheat (Triticum spp.)): 10%; inhibition at 250 g/ha (barnyardgrass): 100%
3 | CCSC(=O)Oc1c(C(=O)c2ccc(S(C)(=O)=O)c(COC)c2C)cnn1C [compound 63] | 90 | 95 | 0 | 100 | 95 | 95 | 90 | 95 | 0 | 90 | 80 | 0 | 95 | 80 | 98 | 0 | 70 | 10 | 95 |  | 
4 | CCSC(=O)Oc1c(C(=O)c2ccc(S(C)(=O)=O)c(OC(C)C)c2C)cnn1C [compound 37] | 50 | 70 | 0 | 100 | 100 | 95 | 70 | 95 | 0 | 60 | 10 | 0 | 80 | 10 | 80 | 0 | 30 | 0 | 60 |  | 
5 | CCSC(=O)Oc1c(C(=O)c2ccc(S(C)(=O)=O)c(C3=NOCC3)c2C)cnn1C [Compound No. 39, 5-(ethylthio)carbonyloxy-1-methylpyrazol-4-yl 2-methyl-4-(methylsulfonyl)-3-(4,5-dihydroisoxazol-3-yl)phenyl ketone] |  | 95 |  |  | 80 |  |  |  |  |  |  |  |  |  |  |  |  |  |  | 100 | inhibition at 250 g/ha (wheat): 0%; pest or weed control at 31 g/ha [2]: 95%; pest or weed control at 31 g/ha [4]: 90%; pest or weed control at 31 g/ha (rice (Oryza sativa L.)): 95%; pest or weed control at 31 g/ha [5]: 95%; inhibition at 250 g/ha (corn): 10%; inhibition at 250 g/ha (greenfoxtail): 80%; inhibition at 250 g/ha (rice): 80%; pest or weed control at 31 g/ha (corn (Zea mays L.)): 0%; inhibition at 250 g/ha (crabgrass): 100%; inhibition at 250 g/ha (prickly sida): 70%; pest or weed control at 31 g/ha [6]: 90%; inhibition at 250 g/ha (soybean): 0%; inhibition at 250 g/ha (velvetleaf): 60%; pest or weed control at 31 g/ha (wheat (Triticum spp.)): 40%; inhibition at 250 g/ha (barnyardgrass): 70%
